Measurements taken from ChEMBL document CHEMBL1201862, “PubChem BioAssay data set” (2004).
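How tested: cells in 96-well plates exposed to compound for 48 hours at five concentrations. GI50 = concentration required for 50% inhibition of growth.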 The source made the active and inactive calls. No stated cut-off is given here; in the data, active = GI50 up to about 1.1 µM and inactive = higher. Where a SMILES comes first, the peptide text is derived from it. The star is where a group is joined. Cbz = O=C(OCc1ccccc1)*; Boc = CC(C)(C)OC(=O)*; tBu = CC(C)(C)*

Legend:
Assay in all cases: NCI tumour cell line growth inhibition, 48 h
COLO 205 = test system: COLO 205
MCF7 = test system: MCF7
LOX IMVI = test system: LOX IMVI
MOLT-4 = test system: MOLT-4
U-251 = test system: U-251
786-0 = test system: 786-0
SF-295 = test system: SF-295
UO-31 = test system: UO-31
MDA-MB-231 = test system: MDA-MB-231
KM12 = test system: KM12
NCI/ADR-RES = test system: NCI/ADR-RES
RXF 393 = test system: RXF 393
ACHN = test system: ACHN
UACC-62 = test system: UACC-62
SK-MEL-28 = test system: SK-MEL-28
Hs-578T = test system: Hs-578T
HL-60 = test system: HL-60
Malme-3M = test system: Malme-3M
HCT-15 = test system: HCT-15
SNB-75 = test system: SNB-75

SMILES	GI50 (COLO 205)	GI50 (MCF7)	GI50 (LOX IMVI)	GI50 (MOLT-4)	GI50 (U-251)	GI50 (786-0)	GI50 (SF-295)	GI50 (UO-31)	GI50 (MDA-MB-231)	GI50 (KM12)	GI50 (NCI/ADR-RES)	GI50 (RXF 393)	GI50 (ACHN)	GI50 (UACC-62)	GI50 (SK-MEL-28)	GI50 (Hs-578T)	GI50 (HL-60)	GI50 (Malme-3M)	GI50 (HCT-15) [µM]	GI50 (SNB-75)
COc1oc(C(=O)NC2CCCCC2)c(-c2ccc(Cl)cc2)c1S(=O)(=O)c1ccccc1	15.5 µM (inactive)	36.1 µM (inactive)	2.78 µM (inactive)	6.79 µM (inactive)	2.64 µM (inactive)	1.99 µM (inactive)	23.4 µM (inactive)	1.82 µM (inactive)	9.51 µM (inactive)	5.55 µM (inactive)	2.76 µM (inactive)	3.02 µM (inactive)	31 µM (inactive)	17.1 µM (inactive)	49.3 µM (inactive)	16.2 µM (inactive)	2.4 µM (inactive)	11.7 µM (inactive)	44.9	20.8 µM (inactive)
CC(OC(C)(C)C)C(NC(=O)C(CCCCNC(=O)OC(C)(C)C)NC(=O)C(Cc1c[nH]c2ccccc12)NC(=O)C(Cc1ccccc1)NC(=O)OCc1ccccc1)C(=O)NC(Cc1ccccc1)C(=O)O (configuration not stated) (Cbz-FWK(Boc)T(tBu)F-OH; configuration not given here)	36.9 µM (inactive)	31.1 µM (inactive)	29.4 µM (inactive)	28.1 µM (inactive)	37.9 µM (inactive)	> 100 µM (inactive)	76.7 µM (inactive)	> 100 µM (inactive)	40.2 µM (inactive)	43.3 µM (inactive)	> 100 µM (inactive)	> 100 µM (inactive)	69.3 µM (inactive)	21 µM (inactive)	57.8 µM (inactive)	0.9 µM (active)	> 100 µM (inactive)	> 100 µM (inactive)	73.6	15.7 µM (inactive)
CC1=NN(c2ccccc2)C(=O)/C1=C1\SC(c2ccccc2)(c2ccccc2)c2ccccc21	> 100 µM (inactive)	> 100 µM (inactive)	> 100 µM (inactive)	> 100 µM (inactive)	3.78 µM (inactive)	> 100 µM (inactive)	> 100 µM (inactive)	> 100 µM (inactive)	> 100 µM (inactive)	> 100 µM (inactive)	> 100 µM (inactive)	> 100 µM (inactive)	> 100 µM (inactive)	> 100 µM (inactive)	> 100 µM (inactive)	> 100 µM (inactive)	> 100 µM (inactive)	> 100 µM (inactive)	> 100	> 100 µM (inactive)
O[C@@]1(C#Cc2ccc3c(c2)OCO3)CCC[C@H]1NCc1ccccc1	18.3 µM (inactive)	22.5 µM (inactive)	15.6 µM (inactive)	15.9 µM (inactive)	22.9 µM (inactive)	17.5 µM (inactive)	19.8 µM (inactive)	18.6 µM (inactive)	24.9 µM (inactive)	20 µM (inactive)	16.7 µM (inactive)	24.3 µM (inactive)	37.2 µM (inactive)	16.9 µM (inactive)	17.6 µM (inactive)	21.2 µM (inactive)	18.4 µM (inactive)	15.2 µM (inactive)	19.1	27.8 µM (inactive)
O=C1Nc2ccc(Br)cc2/C1=N/c1ccc2c(c1)OCO2	16.9 µM (inactive)	16.7 µM (inactive)	23.1 µM (inactive)	16.6 µM (inactive)	12.7 µM (inactive)	21.6 µM (inactive)	24.8 µM (inactive)	19.1 µM (inactive)	19 µM (inactive)	17.6 µM (inactive)	27.5 µM (inactive)	20.3 µM (inactive)	23.7 µM (inactive)	15.7 µM (inactive)	39 µM (inactive)	30.5 µM (inactive)	13.2 µM (inactive)	18.7 µM (inactive)	19.8	31.6 µM (inactive)
NC(=O)CNC(=O)[C@@H]1C[C@@H](OCCC(=O)O)CN1C(=O)OCc1ccccc1	> 100 µM (inactive)	> 100 µM (inactive)	> 100 µM (inactive)	> 100 µM (inactive)	> 100 µM (inactive)	> 100 µM (inactive)	> 100 µM (inactive)	> 100 µM (inactive)	> 100 µM (inactive)	> 100 µM (inactive)	> 100 µM (inactive)	> 100 µM (inactive)	> 100 µM (inactive)	> 100 µM (inactive)	> 100 µM (inactive)	> 100 µM (inactive)	> 100 µM (inactive)	> 100 µM (inactive)	> 100	> 100 µM (inactive)
O=C(O)c1ccc(SSc2ccc(C(=O)O)cn2)nc1	> 100 µM (inactive)	> 100 µM (inactive)	> 100 µM (inactive)	> 100 µM (inactive)	> 100 µM (inactive)	> 100 µM (inactive)	> 100 µM (inactive)		> 100 µM (inactive)	> 100 µM (inactive)	> 100 µM (inactive)	> 100 µM (inactive)	> 100 µM (inactive)	> 100 µM (inactive)	> 100 µM (inactive)	> 100 µM (inactive)	> 100 µM (inactive)	> 100 µM (inactive)	> 100	> 100 µM (inactive)
CCOC(=O)c1nc2cc(C(F)(F)F)ccc2nc1Nc1ccc(OC)c(OC)c1	> 100 µM (inactive)	> 100 µM (inactive)	> 100 µM (inactive)	> 100 µM (inactive)		> 100 µM (inactive)	> 100 µM (inactive)	> 100 µM (inactive)	> 100 µM (inactive)	> 100 µM (inactive)	> 100 µM (inactive)	> 100 µM (inactive)	> 100 µM (inactive)	> 100 µM (inactive)	> 100 µM (inactive)	41.7 µM (inactive)	> 100 µM (inactive)	> 100 µM (inactive)	> 100	50.9 µM (inactive)
N#Cc1c(-c2ccccc2)[nH]c2ccccc2c1=O	> 100 µM (inactive)	67 µM (inactive)	> 100 µM (inactive)	> 100 µM (inactive)		> 100 µM (inactive)	21.8 µM (inactive)	> 10 µM (inactive)	26.2 µM (inactive)	47.9 µM (inactive)	> 100 µM (inactive)	30.7 µM (inactive)	> 100 µM (inactive)	73.8 µM (inactive)	> 100 µM (inactive)	19.2 µM (inactive)	90.4 µM (inactive)	41.3 µM (inactive)	62.8	15.1 µM (inactive)
CN(C)/C=N/c1c2ccccc2nc2ccccc12	2.48 µM (inactive)	2.54 µM (inactive)	2.44 µM (inactive)	2.59 µM (inactive)	4.17 µM (inactive)	5.14 µM (inactive)	5.7 µM (inactive)	5.86 µM (inactive)	5.77 µM (inactive)		10.6 µM (inactive)	4.34 µM (inactive)	5.02 µM (inactive)	2.45 µM (inactive)	1.99 µM (inactive)	2.01 µM (inactive)	3.65 µM (inactive)	3.23 µM (inactive)	8.13	3.74 µM (inactive)
Cc1nnc([C@@]2(C)CC[C@H]3[C@@H](CC=C4C[C@@H](O)CC[C@@]43C)[C@@H]2CC#N)o1	> 100 µM (inactive)	> 100 µM (inactive)	> 100 µM (inactive)	> 100 µM (inactive)	> 100 µM (inactive)	> 100 µM (inactive)	> 100 µM (inactive)	> 100 µM (inactive)	> 100 µM (inactive)	> 100 µM (inactive)	> 100 µM (inactive)	> 100 µM (inactive)	> 100 µM (inactive)	> 100 µM (inactive)		11.6 µM (inactive)	> 100 µM (inactive)	> 100 µM (inactive)	> 100	27 µM (inactive)
Cc1c(C#N)c2nnn(-c3cccc(Cl)c3)c(=O)n2c1-c1ccccc1	0.849 µM (active)	4.02 µM (inactive)	7.5 µM (inactive)		2.33 µM (inactive)	2.99 µM (inactive)	1.45 µM (inactive)	8.97 µM (inactive)	1.57 µM (inactive)	0.895 µM (active)	3.1 µM (inactive)	1.85 µM (inactive)	6.4 µM (inactive)	4.43 µM (inactive)	32.3 µM (inactive)	6.64 µM (inactive)	3.28 µM (inactive)	9.48 µM (inactive)	3.83	1.76 µM (inactive)
O=C1/C(=C/c2ccc(Cl)cc2)N=C(c2ccccc2)N1c1nc2c(Cl)cc(Cl)cc2s1	37.9 µM (inactive)	23.9 µM (inactive)	22.4 µM (inactive)	2.28 µM (inactive)	19.7 µM (inactive)	31.8 µM (inactive)	30.6 µM (inactive)	25.8 µM (inactive)	30.5 µM (inactive)	24.3 µM (inactive)	27.2 µM (inactive)	29.9 µM (inactive)	31.7 µM (inactive)	28.4 µM (inactive)	44.5 µM (inactive)	31.5 µM (inactive)	17.3 µM (inactive)		32.4	35.7 µM (inactive)
O=C(NC1=NC2C=CC([N+](=O)[O-])=CC2S1)C(=O)Nn1c(S)nc2ccccc2c1=O (configuration not stated)		97.7 µM (inactive)	67.3 µM (inactive)	63 µM (inactive)	66.7 µM (inactive)	> 100 µM (inactive)	88.9 µM (inactive)	27.7 µM (inactive)	63.8 µM (inactive)	> 100 µM (inactive)	> 100 µM (inactive)	50.6 µM (inactive)	24.1 µM (inactive)	92 µM (inactive)	> 100 µM (inactive)	39.4 µM (inactive)	56.4 µM (inactive)	80 µM (inactive)	21.2	47.1 µM (inactive)
